Test results taken from PubChem BioAssay AID248 (DTP/NCI, 2004).
“And” between values parts separate entries of the source, which are not always exact repeats. Identical values can stand only once. Toxic doses and inconclusive results are not listed. Rule as the data show it: active = T/C of 150% or more; inactive = T/C below 125%.

System: L1210 leukemia ip in BDF1 mice, survival T/C
Experiment: NCI In Vivo Anticancer Drug Screen. Data for tumor model L1210 Leukemia (intraperitoneal) in B6D2F1 (BDF1) mice
Settings: higher = longer survival
In short: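 Mice bearing the transplanted tumor received compound or vehicle. Survival of the treated group was divided by that of the vehicle-treated control group to give the ratio.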

[1] = endpoint: mean survival time, dose: 100.0 mg/kg/injection, schedule: Q04DX003 (ip), vehicle: saline with Tween-80
[2] = endpoint: mean survival time, dose: 200.0 mg/kg/injection, schedule: Q04DX003 (ip), vehicle: saline with Tween-80
[3] = endpoint: mean survival time, dose: 400.0 mg/kg/injection, schedule: Q04DX003 (ip), vehicle: saline with Tween-80
[4] = endpoint: mean survival time, dose: 100.0 mg/kg/injection, schedule: Q04DX002 (ip), vehicle: Klucel (hydroxypropylcellulose) (HPC)
[5] = endpoint: mean survival time, dose: 100.0 mg/kg/injection, schedule: Q04DX003 (ip), vehicle: Klucel (hydroxypropylcellulose) (HPC)
[6] = endpoint: mean survival time, dose: 100.0 mg/kg/injection, schedule: Q01DX009 (ip), vehicle: saline
[7] = endpoint: mean survival time, dose: 200.0 mg/kg/injection, schedule: Q01DX009 (ip), vehicle: saline
[8] = endpoint: mean survival time, dose: 400.0 mg/kg/injection, schedule: Q01DX009 (ip), vehicle: saline
[9] = endpoint: mean survival time, dose: 100.0 mg/kg/injection, schedule: Q01DX001 (ip), vehicle: carboxymethylcellulose (CMC)
[10] = endpoint: mean survival time, dose: 200.0 mg/kg/injection, schedule: Q01DX001 (ip), vehicle: carboxymethylcellulose (CMC)
[11] = endpoint: mean survival time, dose: 400.0 mg/kg/injection, schedule: Q01DX001 (ip), vehicle: carboxymethylcellulose (CMC)

Measured: T/C

CCN(CC)c1ccc2[nH]c3c(C(N)=O)cc(=O)c(=O)c=3oc2c1
inactive: endpoint: median survival time, dose: 12.5 mg/kg/injection, schedule: Q01DX009 (ip), vehicle: saline with Tween-80 101 % of control | endpoint: median survival time, dose: 25.0 mg/kg/injection, schedule: Q01DX009 (ip), vehicle: saline with Tween-80 120 % of control | endpoint: median survival time, dose: 50.0 mg/kg/injection, schedule: Q01DX009 (ip), vehicle: saline with Tween-80 113 % of control | endpoint: median survival time, dose: 100.0 mg/kg/injection, schedule: Q01DX009 (ip), vehicle: saline with Tween-80 111 % of control | endpoint: median survival time, dose: 200.0 mg/kg/injection, schedule: Q01DX009 (ip), vehicle: saline with Tween-80 98 % of control

O=C1N/C(=N\OCc2ccccc2)CC(NOCc2ccccc2)N1 (stereo unspecified)
inactive: [1] 101 % of control | [2] 97 % of control | [3] 97 % of control

CCc1cccc(CC)c1NC(=O)CCl
inactive: [4] 111 % of control | [5] 108 % of control | endpoint: mean survival time, dose: 200.0 mg/kg/injection, schedule: Q04DX002 (ip), vehicle: Klucel (hydroxypropylcellulose) (HPC) 104 % of control | endpoint: mean survival time, dose: 400.0 mg/kg/injection, schedule: Q04DX002 (ip), vehicle: Klucel (hydroxypropylcellulose) (HPC) 90 % of control | endpoint: mean survival time, dose: 400.0 mg/kg/injection, schedule: Q04DX003 (ip), vehicle: Klucel (hydroxypropylcellulose) (HPC) 95 % of control

O=S(=O)(C1=Cc2cccc3cccc1c23)c1ccccc1
inactive: endpoint: mean survival time, dose: 100.0 mg/kg/injection, schedule: Q01DX001 (ip), vehicle: acetone 101 % of control | [6] 94 % of control | endpoint: mean survival time, dose: 100.0 mg/kg/injection, schedule: Q04DX003 (ip), vehicle: acetone 105 % of control | endpoint: mean survival time, dose: 200.0 mg/kg/injection, schedule: Q01DX001 (ip), vehicle: acetone 92 % of control | [7] 96 % of control | endpoint: mean survival time, dose: 200.0 mg/kg/injection, schedule: Q04DX003 (ip), vehicle: acetone 105 % of control | endpoint: mean survival time, dose: 400.0 mg/kg/injection, schedule: Q01DX001 (ip), vehicle: acetone 93 % of control | [8] 103 % of control | endpoint: mean survival time, dose: 400.0 mg/kg/injection, schedule: Q04DX003 (ip), vehicle: acetone 97 % of control

CN(C)S(=O)(=O)c1ccc(CC(=O)c2ccccc2)cc1
inactive: [9] 115 % of control | [10] 98 % of control | [11] 96 % of control

CC(CC(C)(C)C(C)(C)C)C(C)(C)C (stereo unspecified)
inactive: endpoint: mean survival time, dose: 100.0 mg/kg/injection, schedule: Q01DX001 (ip), vehicle: saline 90 % of control | endpoint: mean survival time, dose: 200.0 mg/kg/injection, schedule: Q01DX001 (ip), vehicle: saline 100 % of control | endpoint: mean survival time, dose: 400.0 mg/kg/injection, schedule: Q01DX001 (ip), vehicle: saline 107 % of control

O=C(/C=C/c1cccc(Cl)c1)c1ccccc1
inactive: endpoint: mean survival time, dose: 50.0 mg/kg/injection, schedule: Q04DX002 (ip), vehicle: saline with Tween-80 108 % of control | endpoint: mean survival time, dose: 100.0 mg/kg/injection, schedule: Q04DX002 (ip), vehicle: saline with Tween-80 115 % of control | endpoint: mean survival time, dose: 200.0 mg/kg/injection, schedule: Q04DX002 (ip), vehicle: saline with Tween-80 97 % of control

NCC12CC3CC(CC(C3)C1)C2
inactive: endpoint: mean survival time, dose: 25.0 mg/kg/injection, schedule: Q01DX009 (ip), vehicle: Klucel (hydroxypropylcellulose) (HPC) 107 % of control | endpoint: mean survival time, dose: 25.0 mg/kg/injection, schedule: Q04DX002 (ip), vehicle: Klucel (hydroxypropylcellulose) (HPC) 111 % of control | endpoint: mean survival time, dose: 50.0 mg/kg/injection, schedule: Q01DX009 (ip), vehicle: Klucel (hydroxypropylcellulose) (HPC) 93 % of control | endpoint: mean survival time, dose: 50.0 mg/kg/injection, schedule: Q04DX002 (ip), vehicle: Klucel (hydroxypropylcellulose) (HPC) 107 % of control | endpoint: mean survival time, dose: 100.0 mg/kg/injection, schedule: Q01DX009 (ip), vehicle: Klucel (hydroxypropylcellulose) (HPC) 90 % of control | [4] 96 % of control and 104 % of control

O=C(O)c1ccc([N+](=O)[O-])cc1C(=O)O
inactive: endpoint: mean survival time, dose: 87.5 mg/kg/injection, schedule: Q01DX001 (ip), vehicle: saline 104 % of control | [6] 100 % of control | [5] 96 % of control | endpoint: mean survival time, dose: 175.0 mg/kg/injection, schedule: Q01DX001 (ip), vehicle: saline 100 % of control | [7] 93 % of control | endpoint: mean survival time, dose: 200.0 mg/kg/injection, schedule: Q04DX003 (ip), vehicle: Klucel (hydroxypropylcellulose) (HPC) 87 % of control | endpoint: mean survival time, dose: 350.0 mg/kg/injection, schedule: Q01DX001 (ip), vehicle: saline 108 % of control

C1CCC(C2OCCO2)CC1
inactive: [6] 98 % of control | endpoint: mean survival time, dose: 100.0 mg/kg/injection, schedule: Q04DX003 (ip), vehicle: saline 97 % of control | [7] 118 % of control | endpoint: mean survival time, dose: 200.0 mg/kg/injection, schedule: Q04DX003 (ip), vehicle: saline 94 % of control | [8] 88 % of control | endpoint: mean survival time, dose: 400.0 mg/kg/injection, schedule: Q04DX003 (ip), vehicle: saline 92 % of control

CC1=C(Cl)C(Cl)(Cl)C(=O)C(=O)C1(Cl)Cl
inactive: endpoint: mean survival time, dose: 6.25 mg/kg/injection, schedule: Q01DX009 (ip), vehicle: saline sonified 100 % of control | endpoint: mean survival time, dose: 6.25 mg/kg/injection, schedule: Q04DX003 (ip), vehicle: Klucel (hydroxypropylcellulose) (HPC) 100 % of control | endpoint: mean survival time, dose: 12.5 mg/kg/injection, schedule: Q01DX009 (ip), vehicle: saline sonified 102 % of control | endpoint: mean survival time, dose: 12.5 mg/kg/injection, schedule: Q04DX003 (ip), vehicle: Klucel (hydroxypropylcellulose) (HPC) 95 % of control | endpoint: mean survival time, dose: 25.0 mg/kg/injection, schedule: Q01DX009 (ip), vehicle: saline sonified 92 % of control | endpoint: mean survival time, dose: 25.0 mg/kg/injection, schedule: Q04DX003 (ip), vehicle: Klucel (hydroxypropylcellulose) (HPC) 95 % of control

c1ccc(CNCCNCc2ccccn2)nc1
inactive: endpoint: mean survival time, dose: 1.25 mg/kg/injection, schedule: Q04DX002 (ip), vehicle: saline 106 % of control | endpoint: mean survival time, dose: 2.5 mg/kg/injection, schedule: Q04DX002 (ip), vehicle: saline 113 % of control | endpoint: mean survival time, dose: 5.0 mg/kg/injection, schedule: Q04DX002 (ip), vehicle: saline 106 % of control | endpoint: mean survival time, dose: 10.0 mg/kg/injection, schedule: Q04DX002 (ip), vehicle: saline 102 % of control

CCCCCCCC(=O)N(C(C)C)C(C)C
inactive: [9] 108 % of control | endpoint: mean survival time, dose: 100.0 mg/kg/injection, schedule: Q01DX009 (ip), vehicle: carboxymethylcellulose (CMC) 101 % of control and 103 % of control | endpoint: mean survival time, dose: 100.0 mg/kg/injection, schedule: Q04DX002 (ip), vehicle: carboxymethylcellulose (CMC) 100 % of control | endpoint: mean survival time, dose: 100.0 mg/kg/injection, schedule: Q04DX003 (ip), vehicle: carboxymethylcellulose (CMC) 100 % of control | [10] 98 % of control | endpoint: mean survival time, dose: 200.0 mg/kg/injection, schedule: Q01DX009 (ip), vehicle: carboxymethylcellulose (CMC) 93 % of control and 109 % of control | endpoint: mean survival time, dose: 200.0 mg/kg/injection, schedule: Q04DX002 (ip), vehicle: carboxymethylcellulose (CMC) 89 % of control | endpoint: mean survival time, dose: 200.0 mg/kg/injection, schedule: Q04DX003 (ip), vehicle: carboxymethylcellulose (CMC) 102 % of control | [11] 96 % of control | endpoint: mean survival time, dose: 400.0 mg/kg/injection, schedule: Q01DX009 (ip), vehicle: carboxymethylcellulose (CMC) 103 % of control and 111 % of control | endpoint: mean survival time, dose: 400.0 mg/kg/injection, schedule: Q04DX002 (ip), vehicle: carboxymethylcellulose (CMC) 96 % of control | endpoint: mean survival time, dose: 400.0 mg/kg/injection, schedule: Q04DX003 (ip), vehicle: carboxymethylcellulose (CMC) 105 % of control

O=C1C(Cl)=C(Nc2ccc(Br)cc2)C(=O)C(Cl)=C1Nc1ccc(Br)cc1
inactive: endpoint: mean survival time, dose: 50.0 mg/kg/injection, schedule: Q01DX001 (ip), vehicle: carboxymethylcellulose (CMC) 92 % of control | [9] 92 % of control | [1] 98 % of control | [10] 86 % of control | [2] 95 % of control | [11] 90 % of control | [3] 103 % of control

O/N=C1\c2ccccc2-c2ccc(Cl)cc21
inactive: [9] 95 % of control | [10] 111 % of control | [11] 97 % of control

Cn1c2ccccc2c2cc[n+]3c(c21)CCCC3
inactive: endpoint: mean survival time, dose: 5.0 mg/kg/injection, schedule: Q01DX001 (ip), vehicle: saline 108 % of control | endpoint: mean survival time, dose: 10.0 mg/kg/injection, schedule: Q01DX001 (ip), vehicle: saline 108 % of control | endpoint: mean survival time, dose: 20.0 mg/kg/injection, schedule: Q01DX001 (ip), vehicle: saline 115 % of control | endpoint: mean survival time, dose: 40.0 mg/kg/injection, schedule: Q01DX001 (ip), vehicle: saline 115 % of control
